Results published in patent US10507247B2, “Optical probes for matrix metalloproteinases” (The University Court of the University of Edinburgh, priority 2015, dated 2019).

Assays:
[1] = target: T1, MMP-12 (Homo sapiens, UniProt P39900); assay: Enzyme assay, fold change in probe fluorescence over background with MMP-12; format: biochemical; conditions: FRET monomers; recombinant human catalytic domain MMP at 30 nM; ex/em 485/528 nm
T1 construct: Recombinant human catalytic domain MMPs-1, -2, -3, -7, -8, -9, -10, -11, -12, -13 were used at 30 nM; purchased Enzo Life Sciences
Method: (§1) Enzyme specificity of the lead probes with exogenous enzymes was tested using a multiwell plate fluorimeter at excitation/emission 485/528 nm (Table 3). Recombinant human catalytic domain MMPs-1, -2, -3, -7, -8, -9, -10, -11, -12, -13 were used at 30 nM. Cleavage site for each sequence is indicated in italics.
(§2) The enzyme assays were run in a 384-well format on a PCR opaque microplate (Thermo Scientific). All dilutions and reactions were prepared in MMP buffer (50 mM Tris, 10 mM CaCl2, 0.15M NaCl, 0.05% Brij-35, pH 7). Proteolytic activity was determined by calculating the fold change in fluorescence over background signal provided by the corresponding dilution of the probe and/or inhibitors with exogenous enzymes using a-multiwell plate fluorimeter (Synergy H1 Hybrid Reader, BioTek instruments Ltd) at excitation/emission 485/528 nm. Recombinant human MMPs (Catalytic domain MMP-1, -2, -3, -7, -8, -9, -10, -11, -12, -13 (Enzo Life Sciences) and Full-length MMP-2, -9, -12 and -13 (Merck/Millipore)) were used at 30 nM. Pro-MMP-13 (R & D Systems) was activated by incubating with 1 mM 4-aminophenylmercunc acetate (APMA) for 2 hrs at 37° C. Human neutrophil elastase (Elastase Product Company, used at 2.5 ug/ml), neutrophil lysate (lysed human neutrophils), and recombinant human Thrombin (Sigma-Aldrich, used at 5 U/ml), Plasmin (Sigma-Aldrich, used at 30 nM) and Factor Xa (Sigma-Aldrich, used at 0.5 μM) were used to identify the lead molecular probe sequences. For inhibition assays, enzyme and inhibitor were pre-incubated for 1 hr at 37° C. before the addition of molecular probe.

[2] = tested on: MMP-2; assay: Enzyme assay, fold change in probe fluorescence over background with MMP-2; format: biochemical; conditions: FRET monomers; recombinant human catalytic domain MMP at 30 nM; ex/em 485/528 nm
Method: as §1, §2

[3] = tested on: MMP-9; assay: Enzyme assay, fold change in probe fluorescence over background with MMP-9; format: biochemical, human; conditions: for MMP-9 (39.0 kDa), fold change in fluorescence over background: FRET monomers, recombinant human catalytic domain MMP at 30 nM, ex/em 485/528 nm; for MMP-9 (83 kDa), fold change in fluorescent signal: different probe scaffolds (monomer, dendrimers)
Method: A library of probes (listed in Table 2 below) containing FAM (Carboxyfluorescein) as the fluorophore (donor) and MethylRed (MR) as the quencher (acceptor) and a variety of peptide sequences was synthesized by manual standard solid-phase Fmoc peptide chemistry (described below).
as §1
(§3) The different compounds were also evaluated according to the fold change in fluorescent signal in presence of MMP-9 and MMP-13, and the results are shown in Table 7. From this comparison, the FRET dendrimers comprising SEQ ID NO.1 and SEQ ID NO.7 (AMF-106 and SVC-186) together with the 9Dendrimer comprising SEQ ID NO.7 (SVC-196) were chosen for further evaluation. These dendrimers are shown in FIG. 7, probe A (AMF-106), probe B (SVC-186) and probe C (SVC-196).
as §2

[4] = target: T2, Thrombin (Homo sapiens, UniProt P00734); assay: Enzyme assay, fold change in probe fluorescence with Thrombin; format: biochemical; conditions: recombinant human Thrombin 5 U/ml; ex/em 485/528 nm
T2 construct: purchased Sigma-Aldrich
Method: as §1, §2

[5] = target: MMP-13 (Homo sapiens, UniProt P45452); assay: Enzyme assay, fold change in probe fluorescence over background with MMP-13; format: biochemical; design: purchased Enzo Life Sciences (catalytic domain); Merck/Millipore (full-length); conditions: FRET monomers; recombinant human catalytic domain MMP at 30 nM; ex/em 485/528 nm
Method: as §1, §3, §2

[6] = tested on: MMP; assay: Activation of probe variants by MMP in vitro; format: biochemical; conditions: FIG. 2
Method: The selectivity of the probes, together with further probes AMF-14b, SVC-030 (both defined in Table 6 below) and SVC-068 (defined in Table 4 below), to detect MMP over elastase, another proteinase relevant in lung disease, was tested and the results for all probes are shown in FIG. 2.
Variants consisting of D-amino acids at the recognition site sequence with or without blocking PEG units were also synthesised and assessed.
as §2

[7] = tested on: MMP-13; assay: Enzyme assay, fold change in probe fluorescence over background with MMP-13; format: biochemical, human; conditions: different probe scaffolds (monomer, dendrimers); MMP-13 52 kDa
Method: as §1, §3, §2

T1 sequence (P39900 106-263 limits assumed): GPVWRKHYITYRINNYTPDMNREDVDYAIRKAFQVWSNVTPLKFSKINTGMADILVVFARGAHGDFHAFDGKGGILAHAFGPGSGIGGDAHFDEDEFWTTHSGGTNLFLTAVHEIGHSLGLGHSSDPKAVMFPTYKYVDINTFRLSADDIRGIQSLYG
MMP-2, sequence (P08253 with tags, fused parts or gaps DEL222-396 limits assumed): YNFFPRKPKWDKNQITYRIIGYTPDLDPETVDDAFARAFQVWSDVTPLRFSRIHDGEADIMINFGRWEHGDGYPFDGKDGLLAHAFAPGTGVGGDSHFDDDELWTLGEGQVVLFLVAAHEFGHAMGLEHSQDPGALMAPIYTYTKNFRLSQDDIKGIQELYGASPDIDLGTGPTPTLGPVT

Substance: FAM-PEG2-P-Cha-G-M-W-G-K(MR)-NH2 [SVC-17]
- MMP-12 (20.3 kDa), fold change in fluorescence over background [1]: 2.59
- MMP-2 (20.3 kDa), fold change in fluorescence over background [2]: 2.59
- MMP-9 (39.0 kDa), fold change in fluorescence over background [3]: 5.07
- Inflammatory mediators: Thrombin, fold change in fluorescence over background [4]: 1.05
- MMP-13 (20.4 kDa), fold change in fluorescence over background [5]: 6.5

Substance: FAM-PEG2-P-Cha-G-M-Y(Me)-G-K(MR)-NH2 [SVC-18]
- MMP-12 (20.3 kDa), fold change in fluorescence over background [1]: 2.15
- MMP-2 (20.3 kDa), fold change in fluorescence over background [2]: 2.54
- MMP-9 (39.0 kDa), fold change in fluorescence over background [3]: 4.94
- Inflammatory mediators: Thrombin, fold change in fluorescence over background [4]: 0.97
- MMP-13 (20.4 kDa), fold change in fluorescence over background [5]: 10.04

Substance: FAM-PEG2-P-Cha-G-M-Y-G-K(MR)-NH2 [SVC-19]
- MMP-12 (20.3 kDa), fold change in fluorescence over background [1]: 2.87
- MMP-2 (20.3 kDa), fold change in fluorescence over background [2]: 4.07
- MMP-9 (39.0 kDa), fold change in fluorescence over background [3]: 6.90
- Inflammatory mediators: Thrombin, fold change in fluorescence over background [4]: 1.04
- MMP-13 (20.4 kDa), fold change in fluorescence over background [5]: 11.26

Substance: FAM-PEG2-P-F-G-I-K-βA-K(MR)-NH2 [AMF-24]
- MMP-12 (20.3 kDa), fold change in fluorescence over background [1]: 1.65
- MMP-2 (20.3 kDa), fold change in fluorescence over background [2]: 1.59
- MMP-9 (39.0 kDa), fold change in fluorescence over background [3]: 2.29
- Inflammatory mediators: Thrombin, fold change in fluorescence over background [4]: 0.96
- MMP-13 (20.4 kDa), fold change in fluorescence over background [5]: 5.05

Substance: FAM-PEG2-P-F-G-L-K-βA-K(MR)-NH2 [AMF-23]
- MMP-12 (20.3 kDa), fold change in fluorescence over background [1]: 3.03
- MMP-2 (20.3 kDa), fold change in fluorescence over background [2]: 1.87
- MMP-9 (39.0 kDa), fold change in fluorescence over background [3]: 2.50
- Inflammatory mediators: Thrombin, fold change in fluorescence over background [4]: 0.89
- MMP-13 (20.4 kDa), fold change in fluorescence over background [5]: 6.41

Substance: FAM-PEG2-P-F-G-M(S = O)-K-βA-K(MR)-NH2 [SVC-068]
- recognition of the cleavable sequence by MMP [6]: not recognised by MMP

Substance: FAM-PEG2-P-F-G-M-K-βA-K(MR)-NH2 [SVC-16]
- MMP-12 (20.3 kDa), fold change in fluorescence over background [1]: 1.88
- MMP-2 (20.3 kDa), fold change in fluorescence over background [2]: 3.11
- MMP-9 (39.0 kDa), fold change in fluorescence over background [3]: 5.21
- Inflammatory mediators: Thrombin, fold change in fluorescence over background [4]: 0.99
- MMP-13 (20.4 kDa), fold change in fluorescence over background [5]: 13.57

Substance: FAM-PEG2-P-F-G-Nle-K-βA-K(MR)-K-K-PEG2-PEG2-NH2 [AMF-92]
- MMP-13 (52 kDa), fold change in fluorescent signal [7]: 19.30
- MMP-9 (83 kDa), fold change in fluorescent signal [3]: 4.75

Substance: FAM-PEG2-P-F-G-Nle-K-βA-K(MR)-NH2 [AMF-25]
- MMP-12 (20.3 kDa), fold change in fluorescence over background [1]: 1.53
- MMP-2 (20.3 kDa), fold change in fluorescence over background [2]: 1.88
- MMP-9 (39.0 kDa), fold change in fluorescence over background [3]: 2.02
- Inflammatory mediators: Thrombin, fold change in fluorescence over background [4]: 0.96
- MMP-13 (20.4 kDa), fold change in fluorescence over background [5]: 5.27

Substance: FAM-PEG2-PFGNleKβA-PEG2-k-PEG2-k-3 probe elements [SVC-188]
- MMP-13 (52 kDa), fold change in fluorescent signal [7]: 1.80
- MMP-9 (83 kDa), fold change in fluorescent signal [3]: 1.41

Substance: MR-K(Ac)-PEG2-GPKGLKG-K(FAM)-PEG2-k-PEG2-k-PEG2-k-NH2 [AMF-111]
- MMP-13 (52 kDa), fold change in fluorescent signal [7]: 10.57
- MMP-9 (83 kDa), fold change in fluorescent signal [3]: 3.66
